Here are results for one compound from patent US4731363A, “Thromboxane synthase inhibitors as insulin lowering agents and antiobesity agents” (priority 1986, dated 1988).

Assay [1] concerns the target T1, thromboxane synthase (Guinea Pig Lung Microsomes) (Cavia porcellus, UniProt H0UT36).
T1 construct: The lungs were removed, freed of trachea and the majority of blood removed by rinsing the lungs with buffer; from tissue; host or cells: lungs of male guinea pigs (microsomes, 110,000 g pellet)
Briefly: biochemical. Conditions: enzyme source G = Guinea Pig Lung Microsomes; read-out: IC50. As to the method: In said assay procedure, microsomes from guinea pig lung or human platelets are added to an endoperoxide intermediate in prostaglandin biosynthesis and the inhibitor in phosphate buffer solution followed by incubation, extraction and determination of the extent of thromboxane synthase inhibition by TLC with radiochromatographic profile analysis. […]
Isolation of Guinea Pig Lung Microsomes
Four male guinea pigs (.congruent.500 g each) were sacrificed by spinal dislocation. The lungs were removed, freed of trachea and the majority of blood removed by rinsing the lungs with buffer (0.1M phosphate pH 7.5) via the pulmonary artery. The lung tissue (18.3 g total wet wt.), was then minced, suspended in three volumes of buffer and homogenized using, initially, a Brinkmann polytron homogenizer and, finally, a glass-teflon tissue grinder. The homogenate was centrifuged at 12,000 g for 1 hr. and the resultant supernatant recentrifuged at 110,000 g for 1 hr. The 110,000 g pellet was taken up in 10 ml of buffer, divided into 5×2 ml aliquots and stored at -70° until use.
Low specific activity PGH2 (3.3 μCi/μmole) was obtained from Dr. W. E. M. Lands of the University of Michigan. PGH2 of higher specific activity (16.0 μCi/μmole) was purchased from Ran Biochemicals, Tel-Aviv, Israel.
The inhibitors tested were prepared as solutions (1-10 mg/ml) in 95% ethanol.
(§1) Assay for Thromboxane Synthase
(§2) To a 12×75 mm tube containing [1-^14 C] PGH2 (2 μg, 0.01 μCi or 0.05 μCi) and inhibitor (1 mM final assay concentration, in 10 μl of ethanol) in 225 μl of phosphate buffer (0.1M, pH 7.5), was added to an aliquot of guinea pig lung microsomes (25 μl, containing 400 μg protein) or an aliquot of human platelet microsomes (25 μl, containing .congruent.[…] protein). The solution was incubated in a 22° water bath for 2 min.; ether (1 ml) and citric acid (25 μMoles) were added, and the tube plunged into an acetone-dry ice bath. The ether extract was transferred to a 1.0 ml Reacti-vial, and the volume reduced under nitrogen to .congruent.50 μl.
(§3) The extract was applied to an I.T.L.C., type SG, glass fiber sheet (Gelman Instrument Co., Ann Arbor, Mich.) and developed in isooctane; methyl ethyl ketone: acetic acid (100:19:1 or 100:9:1) (19). The sheets were air dried and scanned using a Berthold LB 2760 Radiochromatographic Scanner. In certain cases, based on the radiochromatographic profile obtained, the sheets were cut, the appropriate regions placed in scintillation vials, 10 ml of LSC cocktail (Yorktown Research, S. Hackensack, NJ) added, and the relative cpm determined.

The next assay concerns the target TXA2 Synthase. Briefly: TXA2 synthase IC50 as listed in Table I (enzyme source not stated). In kind it is biochemical. As to the method: Determination of Inhibition of Thromboxane Synthase Activity Isolation of Human Platelet Microsomes
as §1, §2, §3

Assay [2] has as its system isolated perfused rat pancreas. Briefly: Insulin secretion by isolated perfused rat pancreas. The conditions noted are these: 100 μM; 16.7 mM glucose; control 1.0 ± 0.04 (n = 5). Details: key: insulin AUC ratio: 1st glucose pulse / 2nd pulse with compound. As to the method:
Determination of Insulin-Secretory Activity in the Isolated Perfused Rat Pancreas
Pancreata were obtained from young adult female Charles River rats weighing from 200-300 g. The animals were anaesthesized with sodium pentobarbitol (45 mg/kg), injected intraperitoneally, and the pancreas with its intact vasculature was removed and connected to an extracorporeal perfusion apparatus.
The basic perfusion solution contained: 133 mM NaCl, 4.4 mM KCl, 2.5 mM MgSO4, 2.4 mM Ca gluconate, 1.5 mM KH2 PO4, 29.4 mM NaHCO3, 4% dextran and 0.2% bovine serum albumin and glucose as discussed below. The perfusion flow rate was kept constant at 4 ml/min. After a 15-20 min equilibration period, the experimental protocol was begun. The pancreatic effluent was collected in either one or four-minute fractions.
The perfusion was run in the following sequence:
30 min 16.7 mM glucose-internal control
30 min 16.7 mM glucose and test compound
5 min 20 mM arginine-to check pancreas viability
Test compounds were dissolved in 90% ethanol to a concentration of 25 mM and then diluted in the perfusion buffer to the desired concentration. The perfusion effluent was collected in one or four min fractions-the samples were checked immediately, aliquoted for submission to radioimmunoassay and stored at -20° C. until the time of assay. The radioimmunoassay of insulin was carried out by a back-titration method using a pure rat insulin standard.
To assess the inhibitory activity of the test compounds, an inhibition index was calculated. The inhibition index is derived by comparing the insulin secretion response from treated versus nontreated pancreas preparations. For each preparation, a ratio of insulin secretion was calculated from the area under the insulin secretion curve of the first pulse of 16.7 mM glucose divided by the area under the curve of the second pulse of 16.7 mM glucose containing compound.

Another assay has as its system male Zucker rats. Put plainly: Carcass weight and carcass lipid and protein levels in male Zucker rats. In kind it is in vivo, rat. The conditions noted are these: 29 days; for Carcass Protein % of carcass weight / Carcass Protein total / Carcass Lipids % of carcass weight / Carcass Lipids total / Carcass Weight: mean ± S.E. As to the method: In one study, carcass composition was determined. After treatment, rats were sacrificed by decapitation, and livers and blood were removed. Carcasses were weighed, saponified in alcoholic potassium hydroxide, acidified and extracted with petroleum ether. The petroleum ether supernatants were transferred to preweighed glass vials, evaporated immediately to dryness under nitrogen and reweighed. Total carcass data are expressed in grams and percentages of carcass weight. An aliquot of saponified carcass extract was neutralized, and total carcass nitrogen was determined using Kjeldahl procedure. Carcass protein data are expressed in grams and percentages of carcass weight.
^a Four month old male Zucker rats (four per group) were fed G70:1%
corn oil diet ad libitum for 24 days prior to treatment.
1[4(1H--imidazol1-yl)phenyl]ethanone was then mixed into the G70:1% corn
oil diet and rats were fed ad libitum for 29 days. On day 29 rats were
killed by decapitation and the carcasses (minus liver and blood) were
analyzed for total lipid and protein. Each value is the mean ± S.E.
^b Amount of 1[4(1H--imidazol1-yl)phenyl]ethanone ingested per day pe
^c Values in parentheses indicate percent of control.

Where [3] appears, read: Lean, 98 mg per day per kg in diet.
The mark [4] stands for this setting: Lean, 98 mg per day per kg in diet, P ≤ 0.05.
Setting [5] is: Obese, 87 mg per day per kg in diet.

pIC50: −log10 of the molar value.

T1 sequence (H0UT36 entry or part of it): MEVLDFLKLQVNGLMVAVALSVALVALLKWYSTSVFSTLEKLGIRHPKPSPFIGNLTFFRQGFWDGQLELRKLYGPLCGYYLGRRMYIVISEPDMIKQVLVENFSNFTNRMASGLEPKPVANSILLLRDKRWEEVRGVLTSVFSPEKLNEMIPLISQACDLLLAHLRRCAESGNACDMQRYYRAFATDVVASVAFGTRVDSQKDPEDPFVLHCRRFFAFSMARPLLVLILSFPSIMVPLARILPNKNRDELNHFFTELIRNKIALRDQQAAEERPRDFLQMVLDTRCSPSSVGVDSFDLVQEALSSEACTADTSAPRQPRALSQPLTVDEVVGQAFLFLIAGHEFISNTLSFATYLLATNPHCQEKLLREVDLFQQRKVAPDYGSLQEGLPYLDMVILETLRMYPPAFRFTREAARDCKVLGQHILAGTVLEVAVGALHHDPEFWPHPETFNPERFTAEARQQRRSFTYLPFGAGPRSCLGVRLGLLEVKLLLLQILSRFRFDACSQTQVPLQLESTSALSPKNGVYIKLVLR

Broadly, the pIC50 is the IC50 on a negative log10 scale, so that one unit is a factor of ten. As to `CC(=O)c1ccc(-n2ccnc2)cc1` [1-[4-(1H--imidazol-1-yl)phenyl]ethanone, 1-[4-(1H-imidazol-1-yl)phenyl]ethanone], in assay [1], the pIC50 was 5.00 to 6.00. The compound also showed a pIC50 at TXA2 Synthase of 5.00. In assay [2], the “Insulin Secretion Inhibition Index” value is 2. Moreover, in the assay with male Zucker rats (setting [3]), the “Carcass Lipids % of carcass weight, percent of control” value is given as 60% of control; the “Carcass Lipids total, percent of control” value was 50% of control; the “Carcass Protein % of carcass weight, percent of control” value is on record as 111% of control; the “Carcass Protein total, percent of control” value is reported as 87% of control. In the assay on male Zucker rats (setting [3]), the “Carcass Weight, percent of control” value is given as 84% of control; the “Carcass Protein % of carcass weight” value was 21 ± 2 % of carcass weight; the “Carcass Protein total” value stood at 75 ± 5 g. In the assay on male Zucker rats (setting [4]), the “Carcass Lipids % of carcass weight” value is 8 ± 1 % of carcass weight, the “Carcass Lipids total” value was found to be 29 ± 5 g and the “Carcass Weight” value came out at 361 ± 27 g. Moreover, in the assay with male Zucker rats (setting [5]), the “Carcass Lipids % of carcass weight, percent of control” value was 104% of control; the “Carcass Lipids total, percent of control” value is reported as 86% of control; the “Carcass Protein % of carcass weight, percent of control” value was 131% of control; the “Carcass Protein total, percent of control” value is listed as 109% of control. In addition, in the assay with male Zucker rats (setting [5]), the “Carcass Weight, percent of control” value was 83% of control; the “Carcass Lipids % of carcass weight” value is given as 49 ± 1 % of carcass weight; the “Carcass Lipids total” value was 225 ± 6 g; the “Carcass Protein % of carcass weight” value was 18 ± 2 % of carcass weight. In the assay on male Zucker rats (setting [5]), the “Carcass Protein total” value was determined as 81 ± 4 g. Further, the “Carcass Weight” value in the assay with male Zucker rats (Obese, 87 mg per day per kg in diet, P ≤ 0.05) was determined as 460 ± 28 g.
